From patent publication US9403813B2, “Azetidine amide derivatives as orexin receptor antagonists” (ACTELION PHARMACEUTICALS LTD, priority 2013, dated 2016)

How the values were obtained:
[1] = biological target: human orexin-2 receptor (Homo sapiens (Human), UniProt O43614); test: Intracellular calcium measurements (FLIPR), antagonism of orexin-A response; type: cell-based; conditions: CHO cells expressing human orexin-2 receptor, 3 nM orexin-A, geometric mean if determined several times, read-out: IC50 OX2
Method: (§1) Antagonistic activities on both orexin receptors have been measured for each example compound using the following procedure:
(§2) In Vitro Assay: Intracellular Calcium Measurements:
(§3) Chinese hamster ovary (CHO) cells expressing the human orexin-1 receptor and the human orexin-2 receptor, respectively, are grown in culture medium (Ham F-12 with L-Glutamine) containing 300 μg/mL G418, 100 U/mL penicillin, 100 μg/mL streptomycin and 10% heat inactivated fetal calf serum (FCS). The cells are seeded at 20,000 cells/well into 384-well black clear bottom sterile plates (Greiner). The seeded plates are incubated overnight at 37° C. in 5% CO2. Human orexin-A as an agonist is prepared as 1 mM stock solution in MeOH:water (1:1), diluted in HBSS containing 0.1% bovine serum albumin (BSA), NaHCO3: 0.375 g/L and 20 mM HEPES for use in the assay at a final concentration of 3 nM.
(§4) Antagonists are prepared as 10 mM stock solution in DMSO, then diluted in 384-well plates using DMSO followed by a transfer of the dilutions into in HBSS containing 0.1% bovine serum albumin (BSA), NaHCO3: 0.375 g/L and 20 mM HEPES. On the day of the assay, 50 μL of staining buffer (HBSS containing 1% FCS, 20 mM HEPES, NaHCO3: 0.375 g/L, 5 mM probenecid (Sigma) and 3 μM of the fluorescent calcium indicator fluo-4 AM (1 mM stock solution in DMSO, containing 10% pluronic) is added to each well. The 384-well cell-plates are incubated for 50 min at 37° C. in 5% CO2 followed by equilibration at rt for 30 min before measurement.
(§5) Within the Fluorescent Imaging Plate Reader (FLIPR Tetra, Molecular Devices), antagonists are added to the plate in a volume of 10 μL/well, incubated for 120 min and finally 10 μL/well of agonist is added. Fluorescence is measured for each well at 1 second intervals, and the height of each fluorescence peak is compared to the height of the fluorescence peak induced by 3 nM orexin-A with vehicle in place of antagonist. The IC50 value (the concentration of compound needed to inhibit 50% of the agonistic response) is determined and may be normalized using the obtained IC50 value of an on-plate reference compound. Optimized conditions were achieved by adjustment of pipetting speed and cell splitting regime. The calculated IC50 values may fluctuate depending on the daily cellular assay performance. Fluctuations of this kind are known to those skilled in the art. In the case where IC50 values have been determined several times for the same compound, the geometric mean has been given.

[2] = biological target: human orexin-1 receptor (Homo sapiens (Human), UniProt O43613); test: as above; type: cell-based; conditions: CHO cells expressing human orexin-1 receptor, 3 nM orexin-A, geometric mean if determined several times, read-out: IC50 OX1
Method: as §1, §2, §3, §4, §5

Sequence of human orexin-1 receptor (O43613 whole entry): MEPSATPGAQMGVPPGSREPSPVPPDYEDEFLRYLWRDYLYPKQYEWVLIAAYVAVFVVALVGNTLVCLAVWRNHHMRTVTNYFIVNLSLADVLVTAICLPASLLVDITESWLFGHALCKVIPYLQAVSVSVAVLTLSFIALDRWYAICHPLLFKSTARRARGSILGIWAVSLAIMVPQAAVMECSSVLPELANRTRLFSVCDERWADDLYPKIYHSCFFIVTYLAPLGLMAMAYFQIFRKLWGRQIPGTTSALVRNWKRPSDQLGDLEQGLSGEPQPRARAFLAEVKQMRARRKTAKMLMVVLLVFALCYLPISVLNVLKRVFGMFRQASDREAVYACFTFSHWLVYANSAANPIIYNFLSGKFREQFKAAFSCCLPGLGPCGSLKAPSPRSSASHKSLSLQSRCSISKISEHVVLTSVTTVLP
Sequence of human orexin-2 receptor (O43614 whole entry): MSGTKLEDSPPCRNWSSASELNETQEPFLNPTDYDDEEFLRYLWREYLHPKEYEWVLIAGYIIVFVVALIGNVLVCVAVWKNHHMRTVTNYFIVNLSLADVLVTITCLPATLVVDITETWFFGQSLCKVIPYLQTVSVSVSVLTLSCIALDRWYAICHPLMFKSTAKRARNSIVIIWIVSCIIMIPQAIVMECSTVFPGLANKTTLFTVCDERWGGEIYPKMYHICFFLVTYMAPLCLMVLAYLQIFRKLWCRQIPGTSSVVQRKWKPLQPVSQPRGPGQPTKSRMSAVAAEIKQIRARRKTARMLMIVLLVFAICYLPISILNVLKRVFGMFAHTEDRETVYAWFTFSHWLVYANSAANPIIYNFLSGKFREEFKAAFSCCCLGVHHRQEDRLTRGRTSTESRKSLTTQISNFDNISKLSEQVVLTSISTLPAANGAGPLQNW

IC50 [1]	IC50 [2]	SMILES
239 nM	960 nM	O=C(c1cc(C(F)(F)F)ccc1-n1nccn1)N1CC[C@H]1c1nc(-c2ccccc2OC(F)(F)F)no1 [Example 48, (2-[1,2,3]Triazol-2-yl-5-trifluoromethyl-phenyl)-{(S)-2-[3-(2-trifluoromethoxy-phenyl)-[1,2,4]oxadiazol-5-yl]-azetidin-1-yl}-methanone]
305 nM	223 nM	Cc1cccc(-c2ocnc2C(=O)N2CC[C@H]2c2nc(-c3ccccc3OC(F)(F)F)no2)c1 [Example 49, (5-m-Tolyl-oxazol-4-yl)-{(S)-2-[3-(2-trifluoromethoxy-phenyl)-[1,2,4]oxadiazol-5-yl]-azetidin-1-yl}-methanone]
91 nM	583 nM	O=C(c1ccccc1-n1nccn1)N1CC[C@H]1c1nc(-c2ccccc2OC(F)(F)F)no1 [Example 50, (2-[1,2,3]Triazol-2-yl-phenyl)-{(S)-2-[3-(2-trifluoromethoxy-phenyl)-[1,2,4]oxadiazol-5-yl]-azetidin-1-yl}-methanone]
342 nM	276 nM	Cc1cccc(-c2scnc2C(=O)N2CC[C@H]2c2nc(-c3ccccc3OC(F)(F)F)no2)c1 [Example 51, (5-m-Tolyl-thiazol-4-yl)-{(S)-2-[3-(2-trifluoromethoxy-phenyl)-[1,2,4]oxadiazol-5-yl]-azetidin-1-yl}-methanone]
309 nM	357 nM	Cc1cccc(-c2oc(C)nc2C(=O)N2CC[C@H]2c2nc(-c3ccccc3OC(F)(F)F)no2)c1 [Example 52, (2-Methyl-5-m-tolyl-oxazol-4-yl)-{(S)-2-[3-(2-trifluoromethoxy-phenyl)-[1,2,4]oxadiazol-5-yl]-azetidin-1-yl}-methanone]
1190 nM	1230 nM	Cc1onc(-c2ccccc2Cl)c1C(=O)N1CC[C@H]1c1nc(-c2ccccc2OC(F)(F)F)no1 [Example 53, [3-(2-Chloro-phenyl)-5-methyl-isoxazol-4-yl]-{(S)-2-[3-(2-trifluoromethoxy-phenyl)-[1,2,4]oxadiazol-5-yl]-azetidin-1-yl}-methanone]
10 nM	129 nM	O=C(c1ccccc1-c1ccccc1)N1CC[C@H]1c1nc(-c2ccccc2OC(F)(F)F)no1 [Example 54, Biphenyl-2-yl-{(S)-2-[3-(2-trifluoromethoxy-phenyl)-[1,2,4]oxadiazol-5-yl]-azetidin-1-yl}-methanone]
218 nM	1200 nM	Cc1nc(C(=O)N2CC[C@H]2c2nc(-c3cccc(Cl)c3C)no2)c(-c2ccccc2F)s1 [Example 55, {(S)-2-[3-(3-Chloro-2-methyl-phenyl)-[1,2,4]oxadiazol-5-yl]-azetidin-1-yl}-[5-(2-fluoro-phenyl)-2-methyl-thiazol-4-yl]-methanone]
280 nM	436 nM	Cc1cccc(-c2sc(C)nc2C(=O)N2CC[C@H]2c2nc(-c3cccc(Cl)c3C)no2)c1 [Example 56, {(S)-2-[3-(3-Chloro-2-methyl-phenyl)-[1,2,4]oxadiazol-5-yl]-azetidin-1-yl}-(2-methyl-5-m-tolyl-thiazol-4-yl)-methanone]
4 nM	89 nM	Cc1ccc(-c2ccccc2)c(C(=O)N2CC[C@H]2c2nc(-c3cccc(Cl)c3C)no2)c1 [Example 57, {(S)-2-[3-(3-Chloro-2-methyl-phenyl)-[1,2,4]oxadiazol-5-yl]-azetidin-1-yl}-(4-methyl-biphenyl-2-yl)-methanone]
133 nM	1030 nM	Cc1nc(C(=O)N2CC[C@H]2c2nc(-c3cccc(Cl)c3C)no2)c(-c2ccccc2)s1 [Example 58, {(S)-2-[3-(3-Chloro-2-methyl-phenyl)-[1,2,4]oxadiazol-5-yl]-azetidin-1-yl}-(2-methyl-5-phenyl-thiazol-4-yl)-methanone]
7 nM	43 nM	Cc1c(Cl)cccc1-c1noc([C@@H]2CCN2C(=O)c2nc(N(C)C)sc2-c2ccccc2)n1 [Example 59, {(S)-2-[3-(3-Chloro-2-methyl-phenyl)-[1,2,4]oxadiazol-5-yl]-azetidin-1-yl}-(2-dimethylamino-5-phenyl-thiazol-4-yl)-methanone]
500 nM	1200 nM	Cc1c(Cl)cccc1-c1noc([C@@H]2CCN2C(=O)c2ncsc2-c2ccccc2)n1 [Example 60, {(S)-2-[3-(3-Chloro-2-methyl-phenyl)-[1,2,4]oxadiazol-5-yl]-azetidin-1-yl}-(5-phenyl-thiazol-4-yl)-methanone]
367 nM	993 nM	Cc1c(Cl)cccc1-c1noc([C@@H]2CCN2C(=O)c2ncsc2-c2cccc(Cl)c2)n1 [Example 61, {(S)-2-[3-(3-Chloro-2-methyl-phenyl)-[1,2,4]oxadiazol-5-yl]-azetidin-1-yl}-[5-(3-chloro-phenyl)-thiazol-4-yl]-methanone]
170 nM	562 nM	Cc1ccc(-c2sc(C)nc2C(=O)N2CC[C@H]2c2nc(-c3cccc(Cl)c3C)no2)cc1 [Example 62, {(S)-2-[3-(3-Chloro-2-methyl-phenyl)-[1,2,4]oxadiazol-5-yl]-azetidin-1-yl}-(2-methyl-5-p-tolyl-thiazol-4-yl)-methanone]
448 nM	1130 nM	Cc1nc(C(=O)N2CC[C@H]2c2nc(-c3cccc(Cl)c3C)no2)c(-c2ccccc2C)s1 [Example 63, {(S)-2-[3-(3-Chloro-2-methyl-phenyl)-[1,2,4]oxadiazol-5-yl]-azetidin-1-yl}-(2-methyl-5-o-tolyl-thiazol-4-yl)-methanone]
676 nM	2730 nM	Cc1c(Cl)cccc1-c1noc([C@@H]2CCN2C(=O)c2cc(OC(F)(F)F)ccc2-n2nccn2)n1 [Example 65, {(S)-2-[3-(3-Chloro-2-methyl-phenyl)-[1,2,4]oxadiazol-5-yl]-azetidin-1-yl}-(2-[1,2,3]triazol-2-yl-5-trifluoromethoxy-phenyl)-methanone]
390 nM	1600 nM	Cc1c(Cl)cccc1-c1noc([C@@H]2CCN2C(=O)c2cc(C(F)(F)F)ccc2-n2nccn2)n1 [Example 66, {(S)-2-[3-(3-Chloro-2-methyl-phenyl)-[1,2,4]oxadiazol-5-yl]-azetidin-1-yl}-(2-[1,2,3]triazol-2-yl-5-trifluoromethyl-phenyl)-methanone]
631 nM	437 nM	Cc1cccc(-c2ocnc2C(=O)N2CC[C@H]2c2nc(-c3cccc(Cl)c3C)no2)c1 [Example 67, {(S)-2-[3-(3-Chloro-2-methyl-phenyl)-[1,2,4]oxadiazol-5-yl]-azetidin-1-yl}-(5-m-tolyl-oxazol-4-yl)-methanone]
74 nM	1090 nM	Cc1c(Cl)cccc1-c1noc([C@@H]2CCN2C(=O)c2ccccc2-n2nccn2)n1 [Example 68, {(S)-2-[3-(3-Chloro-2-methyl-phenyl)-[1,2,4]oxadiazol-5-yl]-azetidin-1-yl}-(2-[1,2,3]triazol-2-yl-phenyl)-methanone]
240 nM	864 nM	Cc1cccc(-c2scnc2C(=O)N2CC[C@H]2c2nc(-c3cccc(Cl)c3C)no2)c1 [Example 69, {(S)-2-[3-(3-Chloro-2-methyl-phenyl)-[1,2,4]oxadiazol-5-yl]-azetidin-1-yl}-(5-m-tolyl-thiazol-4-yl)-methanone]
2 nM	97 nM	Cc1cc(C(=O)N2CC[C@H]2c2nc(-c3cccc(Cl)c3C)no2)c(-n2nccn2)cc1C [Example 70, {(S)-2-[3-(3-Chloro-2-methyl-phenyl)-[1,2,4]oxadiazol-5-yl]-azetidin-1-yl}-(4,5-dimethyl-2-[1,2,3]triazol-2-yl-phenyl)-methanone]
555 nM	693 nM	Cc1cccc(-c2oc(C)nc2C(=O)N2CC[C@H]2c2nc(-c3cccc(Cl)c3C)no2)c1 [Example 71, {(S)-2-[3-(3-Chloro-2-methyl-phenyl)-[1,2,4]oxadiazol-5-yl]-azetidin-1-yl}-(2-methyl-5-m-tolyl-oxazol-4-yl)-methanone]

SMILES	IC50 [1]	IC50 [2]
Cc1cccc(-n2nccn2)c1C(=O)N1CC[C@H]1c1nc(-c2cccc(Cl)c2C)no1 [Example 64, {(S)-2-[3-(3-Chloro-2-methyl-phenyl)-[1,2,4]oxadiazol-5-yl]-azetidin-1-yl}-(2-methyl-6-[1,2,3]triazol-2-yl-phenyl)-methanone]	69 nM	812 nM
